Results published in patent US20150133493A1, “COUMARIN-BASED COMPOUNDS FOR THE TREATMENT OF ALZHEIMER'S DISEASE AND CANCER” (Sloan-Kettering Institute for Cancer Research, priority 2008, published 2015).
“Also recorded” adds a separate entry of the source.

Assays:
γ-secretase active site = target: T1, γ-secretase active site (Homo sapiens, UniProt P49768); test: Photolabeling of the γ-secretase active site (PS1-NTF) in HeLa membrane with probes L646, GY4, JC8, L505; format: binding; conditions: L458 and Compound E at 2 μM, CS-1 up to 100 μM
T1 construct: endogenous in cells; host or cells: HeLa membrane
Experimental: FIG. 4. Kinetic analysis of allosteric GSIs and evaluation of their effect on the γ-secretase active site architecture. (a) Kinetic analysis of CS1 was performed using our modified version of a previously reported in vitro γ-secretase activity assay. The inhibition kinetics were analyzed by using a non-linear curve fit with the Michaelis-Menten equation. Upper right inset: we replotted slopes against the inhibitor concentrations after performing double reciprocal conversion. (b) Schematic representation of the allosteric binding of the di-coumarin compounds to γ-secretase. This binding ultimately causes an alteration at the active site of γ-secretase. Black rectangle represents the coumarin-dimer compound. (c) The binding of L458 to the active site of γ-secretase and its interaction at various subpockets within the enzyme. (d) Chemical structure of the four photoaffinity probes utilized in the characterization of CS-1 effect on active site architecture. Hydroxyethylamine and benzophenone moieties are marked by blue and red, respectively. (e) Evaluation of CS-1 effect on the photolabeling of four probes. […] (f) Evaluation of CS-2 effect on the active site photolabeling by L505 and GY4. (g) Effect of Compound E on active site photolabling. […] Blotting was performed for PS1-NTF. The photolabeling blots are representative and were performed in triplicate.
We hypothesized that the allosteric binding of the di-coumarin compounds alters the conformation of the active site of γ-secretase and thereby preferentially affects the Aβ42 site cleavage (FIG. 4b). This raised the technical issue of how to probe the contours of the enzymatic active site. Although the structure of γ-secretase has been determined by cryoelectron microscopy (23), the resolution attained is not sufficient to investigate subtle changes within the active site. Consequently, we developed a series of active-site directed inhibitors that incorporate a photoreactive benzophenone entity into varied positions. Using these photoreactive probes, we assessed the effect of the di-coumarin inhibitor binding on the active site of γ-secretase. Since the efficiency of photoinsertion depends on the orientation of the probe and the proximity of residues within the active site, conformational change of the active site can alter the orientation of the probe and contact residues and lead to altered cross-linking efficiencies. Therefore, multiple photoactivatable, active-site directed GSIs will provide a practical approach to evaluate the changes within the active site following allosteric di-coumarin binding.
L458 contains a hydroxyethylamine transition-state isostere that mimics the tetrahedral intermediate of aspartyl proteases and this moiety hydrogen bonds with the catalytic aspartate residues of γ-secretase (20). According to the nomenclature of Schechter and Berger (24), L458 contains the P2, P1, P1′, P2′ and P3′ residues that putatively bind to the S2, S1, S1′, S2′ and S3′ subsites, respectively, within the active site of γ-secretase (FIG. 4c). We have developed a series of biotinylated, photoactivatable inhibitors based on the core structure of L458 that allow us to probe the sub-pockets of the γ-secretase active site (3, 25-26). These inhibitors all have an individual benzophenone group incorporated into L458 at either the P2, P1, P1′, or P3′ position and are referred to as L646, GY4, JC8 and L505 (FIG. 4d). Each of these inhibitors interacts and labels the S2, S1, S1′, and S3′ subsites, respectively, within the γ-secretase complex (FIG. 4c-d).
HeLa membrane was incubated with CHAPSO detergent and photoaffinity probe in the presence or absence of excess L458 or CS-1. Labeled presenilin was isolated using streptavidin beads, separated by SDS-PAGE and subsequently western blotted using anti-PS1-NTF antibodies. Again, presenilin is believed to contain the active site of γ-secretase, therefore we examined PS1 photolabeling. […]

γ-secretase = target: T2, γ-secretase (Homo sapiens, UniProt P49768); test: In vitro γ-secretase activity assay, Aβ42 production (ECL); format: biochemical; conditions: in words
T2 construct: endogenous in cells
Experimental: FIG. 2. In vitro characterization of coumarin-dimer allosteric GSIs against various γ-secretase cleavage products. […] The IC50 values were calculated from the dose response curves using a non-linear regression analysis in Prism software. […] The three β-amyloid-detection in vitro assays were modified from our previously reported assay (21) using a biotinylated substrate that eliminated the requirement of anti-β-amyloid biotinylated antibody. Ruthenylated antibodies that detected the -40, -42, or -38 cleavage site were incorporated to detect proteolysis indicative of γ-secretase activity. In vitro Notch assay utilized a recombinant transmembrane portion of the Notch peptide and anti-Notch1 SM320 antibody in conjunction with ruthenylated anti-rabbit secondary antibodies. Electrochemiluminescence was quantified on an Analyzer (BioVeris).
Briefly, recombinant peptide substrate was incubated with γ-secretase (40 μg/ml) in the presence or absence of test compound. […] The reaction was incubated for 2.5 hr at 37° C. and stopped by adding RIPA buffer (150 mM NaCl, 1.0% NP-40, 0.5% sodium deoxycholate, 0.1% SDS, 50 mM Tris HCl, pH 8.0). […] The amount of product was determined using synthetic peptide or recombinant standards.
Cell membranes and solubilized γ-secretase were prepared as described previously (36). The in vitro and cell γ-secretase assays detecting either Aβ38, Aβ40, or Aβ42 cleavage were performed similar as previously described (21, 36). Cleaved product was detected using ruthenylated antibodies that recognize specific APP cleavage sites (Aβ31-38*, G2-10*, or G2-11* antibody for Aβ38, Aβ40, or Aβ42 respectively). The Km and Vmax in the presence and absence of γ-secretase inhibitors were analyzed by non-linear curve fit using the software SigmaPlot 8.0 with the Michaelis-Menten equation (v=Vm [S]/(Km+[S]; v: initial rate; Vm: maximum velocity; Km: the Michaelis-Menten constant, S: substrate).

In the case of `C[C@H](NC(=O)Cc1cc(F)cc(F)c1)C(=O)N[C@H]1N=C(c2ccccc2)c2ccccc2N(C)C1=O` [Compound E], the “effect on JC-8 photolabeling of PS1-NTF (S1′ subsite)” value (γ-secretase active site) is reported as “completely suppressed; also recorded: nonselectively blocked”, the “effect on L646 photolabeling of PS1-NTF (S2 subsite)” value (γ-secretase active site) is reported as “completely suppressed; also recorded: nonselectively blocked” and the “effect on GY-4 photolabeling of PS1-NTF (S1 subsite)” value (γ-secretase active site; CS-2 at 100 μM) is reported as “completely suppressed; also recorded: nonselectively blocked”. The “effect on L505 photolabeling of PS1-NTF (S3′ subsite)” value (γ-secretase active site; CS-2 at 100 μM) was “completely suppressed; also recorded: nonselectively blocked” and the “inhibitory potency and selectivity against γ-secretase cleavage activities in vitro” value (γ-secretase) was “did not exhibit any significant selectivity”.
